Source: article PMC6458850, “CXXC5 mediates growth plate senescence and is a target for enhancement of longitudinal bone growth” (Life Science Alliance, 2019)

Legend:
GSK3β (human) = GSK3β (human) (Homo sapiens, UniProt P49841); assay: GSK3β kinase assay; assay type: biochemical; details: dose–response curve, n = 3; read-out: IC50, in vitro GSK3β activity
Protocol: GSK3β (human) was incubated with 8 mM MOPS (pH 7.0), 0.2 mM EDTA, 20 μM […](p) EDEEE (phospho-GS2 peptide), 10 mM Mg acetate, and [γ-33P-ATP] (specific activity ∼500 cpm/pmol, concentration as required). The reaction was initiated by the addition of the Mg-ATP mixture. After incubation for 40 min at room temperature, the reaction was stopped by addition of 3% phosphoric acid solution. 10 μl of the reaction was then spotted onto a P30 filtermat and washed three times for 5 min in 50 mM phosphoric acid and once in methanol before drying and scintillation counting.

[1] = Toxicity observations in mice treated with KY19382 for 10 wk; assay type: in vivo, mouse; details: 0.1 mg/kg i.p. daily for 10 wk
Protocol: Figure S9. The effects of KY19382 on articular cartilage and liver tissues, or weight. Data are shown from mice used in Fig 5J. (A, B) H&E staining of articular cartilage (A) and liver (B) tissues. (C) During treatment, the weights of mice were measured every 5–7 d (mean ± SEM, n = 7∼15). Scale bars, 100 μm.
Cxxc5^−/− mice were established in a previous study ([Kim et al, 2015]). To manipulate growth plate senescence by estrogen, 3-wk-old Cxxc5^+/+ and Cxxc5^−/− male mice received weekly i.m. injections of either 70 μg/kg estradiol (E2) cypionate (Sigma-Aldrich) or vehicle (cottonseed oil) for 3 wk. To investigate the effects of KY19382 treatment on longitudinal bone growth, C57BL/6 male mice were purchased from KOATECH (Gyeonggido, Korea). KY19382 (0.1 mg/kg) was administered daily by i.p. injection to 3- and 7-wk-old mice for 2 wk or to 3-wk-old mice for 10 wk. For BrdU labeling experiments, the mice were i.p. injected with 50 mg/kg BrdU (Sigma-Aldrich) before 24 h to euthanize. All animal procedures were approved by the Institutional Animal Care and Use Committee of Yonsei University (Korea) and conducted based on the guidelines of the Korean Food and Drug Administration.

tibiae (E15.5) = assay: Tibial organ culture (ex vivo); design: species or system mouse; details: 100 nM, 6 d
Protocol: Figure 2. The effects of estrogen on CXXC5 expression and the mediation of growth plate senescence. (A) Immunoblotting (upper) and quantitative analyses (mean ± SEM, n = 3) (lower) in C28/I2 cells treated with 100 nM E2 (17β-estradiol) for 0, 1, 3, 6, 24, 48, or 72 h. (B) Immunocytochemical staining (left) and quantitative analyses of the fluorescent intensity (mean ± SEM, n = 3; t test, **P < 0.005 and ***P < 0.0005) (right) in C28/I2 cells treated with 100 nM E2 for 40 h. Scale bars, 100 μm. (C–E) Tibial organ cultures (E15.5) incubated with 100 nM E2 for 6 d. Representative images at 6 d (C, left) and quantitative analyses of the growth changes (mean ± SEM, n = 5; t test, ***P < 0.0005) (C, right). Scale bar, 1 mm. H&E staining (D, left) and quantification of each zone height (mean ± SEM, n = 5; t test, *P < 0.05 and **P < 0.005) (D, right) in the growth plate. Scale bar, 200 μm. IHC analyses of β-catenin and CXXC5 (E). Scale bars, 50 μm. (F) 3-wk-old Cxxc5^+/+ and Cxxc5^−/− mice were treated with E2 cypionate (70 μg/kg) by i.m. injection once a week for 3 wk (n = 3–4). Representative images of H&E staining and IHC analyses for BrdU, β-catenin, and CXXC5 in the growth plates of proximal tibiae are shown. […] Tibial length was measured before treatment and after 6 d in culture. The samples were then prepared for paraffin embedding, sectioned, and analyzed by H&E and IHC staining.

Sequence of GSK3β (human) (P49841 whole entry): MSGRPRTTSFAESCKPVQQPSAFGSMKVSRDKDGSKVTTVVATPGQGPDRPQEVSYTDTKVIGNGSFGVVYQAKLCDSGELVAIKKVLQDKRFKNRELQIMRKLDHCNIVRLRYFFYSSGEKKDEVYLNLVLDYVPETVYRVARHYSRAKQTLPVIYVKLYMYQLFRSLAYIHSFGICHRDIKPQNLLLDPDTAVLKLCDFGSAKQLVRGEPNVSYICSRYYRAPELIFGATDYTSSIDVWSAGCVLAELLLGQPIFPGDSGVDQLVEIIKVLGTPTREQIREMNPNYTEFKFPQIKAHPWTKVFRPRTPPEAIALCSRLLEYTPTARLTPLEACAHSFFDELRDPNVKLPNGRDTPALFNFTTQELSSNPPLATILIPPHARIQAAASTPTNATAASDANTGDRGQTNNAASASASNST

SMILES | IC50 (GSK3β (human)) [nM] | body weight during treatment [1] | histology of articular cartilage and liver tissues [1] | tibial length in ex vivo tibial culture (tibiae (E15.5))
CON=C1C(=C2C(=O)Nc3cc(Cl)c(Cl)cc32)Nc2ccccc21 [KY19382, 5,6-dichloroindirubin-3′-methoxime] | 10 | no difference in weight | no histological abnormalities were detected | –
C[C@]12CC[C@@H]3c4ccc(O)cc4CC[C@H]3[C@@H]1CC[C@@H]2O [E2, 17β-estradiol] | – | – | – | reduced tibial length
